From patent US12521395B2, “Gem-disubstituted heterocyclic compounds and their use as IDH inhibitors” (NERVIANO MEDICAL SCIENCES S.R.L., priority 2019, dated 2026)
pIC50: −log10 of the molar value.

Biological target: IDH1^R132C (Homo sapiens, UniProt O75874, R132C)
Assay: NADPH depletion assay (diaphorase/resazurin), IDH1 R132C
Type: biochemical
Conditions: IDH1^R132C 2 nM, alpha-ketoglutarate 0.14 mM; read-out: IDH1^R132C IC50
Description: IDH mutated enzyme activity converting alpha-ketoglutarate to 2-hydroxyglutaric acid is measured using a NADPH depletion assay. In the assay the remaining cofactor is measured at the end of the reaction with the addition of a catalytic excess of diaphorase and resazurin, to generate a fluorescent signal in proportion to the amount of NADPH remaining. IDH1 WT enzyme as well as mutated isoforms IDH1^R132H, IDH1^R132C, and IDH2^R172K enzymes are commercially available proteins (see e.g. Sino Biological, Abcam, Active Motif or Creative BioMart).
IDH1^R132H homodimer enzyme are diluted to 8 nM, in 10 μL of Assay Buffer (150 mM NaCl, 50 mM Tris-HCl pH 7.6, 10 mM MgCl2, 0.001% Triton X-100, 4 mM β-mercaptoethanol); 0.2 μL of test compound, previously serially diluted 1 to 3, >10 experimental points from 1 mM in DMSO, is added and the mixture is incubated for 15 minutes at room temperature. The reaction is started with the addition of 10 μL of Substrate Mix (12 μM NADPH, 3.4 mM alpha-ketoglutarate in Assay Buffer) and the mixture is incubated for 60 minutes at room temperature. The reaction is terminated with the addition of 5 μl of Detection Buffer (100 μg/mL diaphorase, 30 μM resazurin, in IX Assay Buffer), and is incubated for 15 minutes before reading on a ViewLux as platereader at Ex544/Em590.
Compounds are assayed for their activity against IDH1^R132C following the same assay as above with the following modifications: IDH1^R132C and alpha-ketoglutarate final concentrations in the Assay Buffer is 2 nM and 0.14 mM, respectively.

Sequence of IDH1^R132C (O75874 whole entry R132C): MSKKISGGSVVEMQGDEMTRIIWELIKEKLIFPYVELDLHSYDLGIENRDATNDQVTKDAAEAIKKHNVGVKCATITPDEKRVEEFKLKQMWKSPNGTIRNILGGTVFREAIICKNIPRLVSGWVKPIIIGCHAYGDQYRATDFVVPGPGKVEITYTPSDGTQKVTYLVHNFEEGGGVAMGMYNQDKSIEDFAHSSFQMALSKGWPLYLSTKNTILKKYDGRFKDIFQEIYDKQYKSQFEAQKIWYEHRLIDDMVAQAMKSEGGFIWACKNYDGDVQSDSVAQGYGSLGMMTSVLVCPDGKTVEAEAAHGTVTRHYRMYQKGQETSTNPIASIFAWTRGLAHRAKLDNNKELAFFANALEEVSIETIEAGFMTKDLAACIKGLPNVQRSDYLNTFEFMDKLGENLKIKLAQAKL

A pIC50 of 5.83 was found for `CC#CC(=O)N1CCN(C2(c3ccc([C@H](C)Nc4ncc5ccc(=O)n(C(C)C)c5n4)cc3)CCOCC2)CC1` [cpd 5, 2-{[(1S)-1-(4-{4-[4-(but-2-ynoyl)piperazin-1-yl]tetrahydro-2H-pyran-4-yl}phenyl)ethyl]amino}-8-(propan-2-yl)pyrido[2,3-d]pyrimidin-7(8H)-one] in this work.
A pIC50 of 7.27 was found for `C=CC(=O)N1CCN(C2(c3ccc([C@H](C)Nc4nc(C)c5ccc(=O)n(C(C)C)c5n4)cc3)CCOCC2)CC1` [cpd 13, 2-{[(1S)-1-{4-[4-(4-acryloylpiperazin-1-yl)tetrahydro-2H-pyran-4-yl]phenyl}ethyl]amino}-4-methyl-8-(propan-2-yl) pyrido[2,3-d]pyrimidin-7(8H)-one] in this work.
A pIC50 of 7.62 was found for `C=CC(=O)N1CCN(C2(c3ccc([C@H](C)Nc4ncc5c(C)cc(=O)n(C(C)C)c5n4)cc3)CCOCC2)CC1` [cpd 18, 2-{[(1S)-1-{4-[4-(4-acryloylpiperazin-1-yl)tetrahydro-2H-pyran-4-yl]phenyl}ethyl]amino}-5-methyl-8-(propan-2-yl) pyrido[2,3-d]pyrimidin-7(8H)-one] in this work.
A pIC50 of 6.04 was found for `C=C(C)C(=O)N1CCN(C2(c3ccc([C@H](C)Nc4ncc5ccc(=O)n(C(C)C)c5n4)cc3)CCOCC2)CC1` [cpd 21, 2-{[(1S)-1-(4-{4-[4-(2-methylacryloyl)piperazin-1-yl]tetrahydro-2H-pyran-4-yl}phenyl)ethyl]amino}-8-(propan-2-yl) pyrido[2,3-d]pyrimidin-7(8H)-one] in this work.
A pIC50 of 7.01 was found for `C=CC(=O)N1CCN(C2(c3ccc([C@H](C)Nc4ncc5ccc(=O)n(C(C)C)c5n4)nc3)CCOCC2)CC1` [cpd 27, 2-{[(1S)-1-{5-[4-(4-acryloylpiperazin-1-yl)tetrahydro-2H-pyran-4-yl]pyridin-2-yl}ethyl]amino}-8-(propan-2-yl)pyrido[2,3-d]pyrimidin-7(8H)-one] in this work.
A pIC50 of 6.48 was found for `C=CC(=O)N1CCN(C2(c3ccc(CNc4ncc5ccc(=O)n(C(C)C)c5n4)cc3)CCOCC2)CC1` [cpd 31, 2-({4-[4-(4-acryloylpiperazin-1-yl)tetrahydro-2H-pyran-4-yl]benzyl}amino)-8-(propan-2-yl)pyrido[2,3-d]pyrimidin-7(8H)-one] in this work.
A pIC50 of 7.19 was found for `C=CC(=O)N1CCN(C2(c3ccc([C@H](C)Nc4ncc5ccc(=O)n(C(C)C)c5n4)cc3)CCN(C)CC2)CC1` [cpd 32, 2-{[(1S)-1-{4-[4-(4-acryloylpiperazin-1-yl)-1-methylpiperidin-4-yl]phenyl}ethyl]amino}-8-(propan-2-yl)pyrido[2,3-d]pyrimidin-7(8H)-one] in this work.
A pIC50 of 8.40 was found for `C=CC(=O)N1CCN(C2(c3ccc([C@H](C)Nc4ncc5ccc(=O)n(C(CC)CC)c5n4)cc3)CCOCC2)CC1` [cpd 35, 2-{[(1S)-1-{4-[4-(4-acryloylpiperazin-1-yl)tetrahydro-2H-pyran-4-yl]phenyl}ethyl]amino}-8-(pentan-3-yl)pyrido[2,3-d]pyrimidin-7(8H)-one] in this work.
A pIC50 of 6.01 was found for `C=CC(=O)N1CCN(C2(c3ccc([C@H](C)Nc4nc(N(C)C)c5ccc(=O)n(C(C)C)c5n4)cc3)CCOCC2)CC1` [cpd 36, 2-{[(1S)-1-{4-[4-(4-acryloylpiperazin-1-yl)tetrahydro-2H-pyran-4-yl]phenyl}ethyl]amino}-4-(dimethylamino)-8-(propan-2-yl)pyrido[2,3-d]pyrimidin-7(8H)-one] in this work.
A pIC50 of 6.00 was found for `C=CC(=O)N1CCN(C2(c3ccc([C@H](C)Nc4nc(NC)c5ccc(=O)n(C(C)C)c5n4)cc3)CCOCC2)CC1` [cpd 37, 2-{[(1S)-1-{4-[4-(4-acryloylpiperazin-1-yl)tetrahydro-2H-pyran-4-yl]phenyl}ethyl]amino}-4-(methylamino)-8-(propan-2-yl)pyrido[2,3-d]pyrimidin-7(8H)-one] in this work.
A pIC50 of 5.98 was found for `CCN1CCN(C2(c3ccc([C@H](C)Nc4ncc5c(n4)N(CC)C(=O)OC5)cc3)CCOCC2)CC1` [cpd 45, 7-{[(1S)-1-{4-[4-(4-ethylpiperazin-1-yl)tetrahydro-2H-pyran-4-yl]phenyl}ethyl]amino}-1-ethyl-1,4-dihydro-2H-pyrimido[4,5-d][1,3]oxazin-2-one] in this work.
A pIC50 of 7.89 was found for `C=CC(=O)N1CCN(C(C)(CC)c2ccc([C@H](C)Nc3ncc4ccc(=O)n(C(C)C)c4n3)cc2)CC1` (stereo partly drawn) [cpd 46, 2-{[(1S)-1-{4-[2-(4-acryloylpiperazin-1-yl)butan-2-yl]phenyl}ethyl]amino}-8-(propan-2-yl)pyrido[2,3-d]pyrimidin-7(8H)-one] in this work.
A pIC50 of 6.03 was found for `C=C(F)C(=O)N1CCN(C2(c3ccc([C@H](C)Nc4ncc5ccc(=O)n(C(C)C)c5n4)cc3)CCOCC2)CC1` [cpd 54, 2-{[(1S)-1-(4-{4-[4-(2-fluoroacryloyl)piperazin-1-yl]tetrahydro-2H-pyran-4-yl}phenyl)ethyl]amino}-8-(propan-2-yl) pyrido[2,3-d]pyrimidin-7(8H)-one] in this work.
A pIC50 of 7.96 was found for `[2H]C([2H])([2H])C([2H])(n1c(=O)ccc2cnc(N[C@@H](C)c3ccc(C4(N5CCN(C(=O)C=C)CC5)CCOCC4)cc3)nc21)C([2H])([2H])[2H]` [cpd 55, 2-{[(1S)-1-{4-[4-(4-acryloylpiperazin-1-yl)tetrahydro-2H-pyran-4-yl]phenyl}ethyl]amino}-8-[(^2H7)propan-2-yl]pyrido[2,3-d]pyrimidin-7(8H)-one] in this work.
A pIC50 of 6.49 was found for `C=CC(=O)NCC(=O)NC1(c2ccc([C@H](C)Nc3ncc4ccc(=O)n(C(C)C)c4n3)cc2)CCC(F)(F)CC1` [cpd 56, N-{2-[(4,4-difluoro-1-{4-[(1S)-1-{[7-oxo-8-(propan-2-yl)-7,8-dihydropyrido[2,3-d]pyrimidin-2-yl]amino}ethyl]phenyl}cyclohexyl)amino]-2-oxoethyl}prop-2-enamide] in this work.
A pIC50 of 6.27 was found for `C=CC(=O)N[C@H](C)C(=O)NC1(c2ccc([C@H](C)Nc3ncc4ccc(=O)n(C(C)C)c4n3)cc2)CCC(F)(F)CC1` [cpd 57, N2-acryloyl-N-(4,4-difluoro-1-{4-[(1S)-1-{[7-oxo-8-(propan-2-yl)-7,8-dihydropyrido[2,3-d]pyrimidin-2-yl]amino}ethyl]phenyl}cyclohexyl)-D-alaninamide] in this work.
A pIC50 of 6.45 was found for `C=CC(=O)N[C@@H](C)C(=O)NC1(c2ccc([C@H](C)Nc3ncc4ccc(=O)n(C(C)C)c4n3)cc2)CCC(F)(F)CC1` [cpd 58, N2-acryloyl-N-(4,4-difluoro-1-{4-[(1S)-1-{[7-oxo-8-(propan-2-yl)-7,8-dihydropyrido[2,3-d]pyrimidin-2-yl]amino}ethyl]phenyl}cyclohexyl)-L-alaninamide] in this work.
A pIC50 of 6.82 was found for `C=CC(=O)NCCNC1(c2ccc([C@H](C)Nc3ncc4ccc(=O)n(C(C)C)c4n3)cc2)CCOCC1` [cpd 59, N-{2-[(4-{4-[(1S)-1-{[7-oxo-8-(propan-2-yl)-7,8-dihydropyrido[2,3-d]pyrimidin-2-yl]amino}ethyl]phenyl}tetrahydro-2H-pyran-4-yl)amino]ethyl}prop-2-enamide] in this work.
A pIC50 of 7.15 was found for `CC(C)n1c(=O)ccc2cnc(N[C@@H](C)c3ccc(C4(N5CCN(C(=O)C(O)CO)CC5)CCC(F)(F)CC4)cc3)cc21` (stereo partly drawn) [cpd 60, 7-{[(1S)-1-(4-{1-[4-(2,3-dihydroxypropanoyl)piperazin-1-yl]-4,4-difluorocyclohexyl}phenyl)ethyl]amino}-1-(propan-2-yl)-1,6-naphthyridin-2(1H)-one] in this work.
A pIC50 of 8.22 was found for `C=CC(=O)N1CC(N(C)C2(c3ccc([C@H](C)Nc4cc5c(ccc(=O)n5C(C)C)cn4)cc3)CCC(F)(F)CC2)C1` [cpd 61, 7-{[(1S)-1-(4-{1-[(1-acryloylazetidin-3-yl)(methyl)amino]-4,4-difluorocyclohexyl}phenyl)ethyl]amino}-1-(propan-2-yl)-1,6-naphthyridin-2(1H)-one] in this work.
A pIC50 of 8.70 was found for `C=CC(=O)N1CC(N(C(C)=O)C2(c3ccc([C@H](C)Nc4cc5c(ccc(=O)n5C(C)C)cn4)cc3)CCC(F)(F)CC2)C1` [cpd 62, N-(1-acryloylazetidin-3-yl)-N-(4,4-difluoro-1-{4-[(1S)-1-{[2-oxo-1-(propan-2-yl)-1,2-dihydro-1,6-naphthyridin-7-yl]amino}ethyl]phenyl}cyclohexyl)acetamide] in this work.
A pIC50 of 7.26 was found for `C=CC(=O)N1CCN(C2(c3ccc([C@@H](C)Nc4cc5c(ccc(=O)n5C(C)C)cn4)cc3)CCC(F)(F)CC2)CC1` [cpd 63, 7-{[(1R)-1-{4-[1-(4-acryloylpiperazin-1-yl)-4,4-difluorocyclohexyl]phenyl}ethyl]amino}-1-(propan-2-yl)-1,6-naphthyridin-2(1H)-one] in this work.
A pIC50 of 6.52 was found for `CC(C)n1c(=O)ccc2cnc(N[C@@H](C)c3ccc(C4(N5CCN(C#N)CC5)CCOCC4)cc3)nc21` [cpd 65, 4-(4-{4-[(1S)-1-{[7-oxo-8-(propan-2-yl)-7,8-dihydropyrido[2,3-d]pyrimidin-2-yl]amino}ethyl]phenyl}tetrahydro-2H-pyran-4-yl)piperazine-1-carbonitrile] in this work.
A pIC50 of 7.12 was found for `C=CC(=O)NCCN(C(=O)C(F)(F)F)C1(c2ccc([C@H](C)Nc3ncc4ccc(=O)n(C(C)C)c4n3)cc2)CCOCC1` [cpd 66, N-{2-[(4-{4-[(1S)-1-{[7-oxo-8-(propan-2-yl)-7,8-dihydropyrido[2,3-d]pyrimidin-2-yl]amino}ethyl]phenyl}tetrahydro-2H-pyran-4-yl)(trifluoroacetyl)amino]ethyl}prop-2-enamide] in this work.
